{"source": "patent US6828475B1", "about": "“Nucleic acid sequences encoding a plant cytoplasmic protein involved in fatty acyl-CoA metabolism” (Calgene LLC, priority 1994, dated 2004)", "key": {"[1]": {"tested_on": "jojoba wax synthase", "assay": "Wax synthase assay in jojoba microsomal membrane fraction", "format": "biochemical", "settings": "for Wax synthase Activity, Acyl Group: 80 μM acyl-CoA substrate, 100 μM radiolabeled oleyl alcohol; for Wax synthase Activity, Acyl Group / Wax synthase Activity, Alcohol Group: microsomal membrane fraction; for Wax synthase Activity, Alcohol Group: 100 μM alcohol substrate, 40 μM radiolabeled eicosenoyl-CoA", "procedure": "Wax synthase activity in a microsomal membrane preparation is measured by incubation of 40 μM [1-^14C] acyl-CoA (usually palmitoyl-CoA, sp. act. 5.1-5.6 mCi/mmol) and 200 μM oleyl alcohol with the sample to be assayed in a total volume of 0.25 ml. The incubation mixture also contains 20% w/v glycerol, 1 mM DTT, 0.5M NaCl and is buffered with 25 mM HEPES (4-[2-hydroxyethyl]-1-piperazineethane-sulfonic acid). HEPES, here and as referred to hereafter is added from a 1M stock solution adjusted to pH 7.5.\nA substrate mixture is prepared in a glass vial, with oleyl alcohol being added immediately before use, and is added to samples. Incubation is carried out at 30° C. for one hour. The assay is terminated by placing the assay tube on ice and immediately adding 0.25 ml isopropanol:acetic acid (4:1 v/v). Unlabeled wax esters (0.1 mg) and oleyl alcohol (0.1 mg) are added as carriers. The [^14C] lipids are extracted by the scaled-down protocol of Hara and Radin (Anal. Biochem. (1978) 90:420). Four ml of hexane/isopropanol (3:2, v/v) is added to the terminated assay. The sample is vortexed, 2 ml of aqueous sodium sulphate solution (6.6% w/v) is added, and the sample is again vortexed.\n1. Extensive Analysis: Following addition of the sodium sulphate and vortexing the sample, the upper organic phase is removed and the lower aqueous phase is washed with 4 ml hexane/isopropanol (7:2 v/v). The organic phases are pooled and evaporated to dryness under nitrogen. The lipid residue is resuspended in a small volume of hexane, and an aliquot is assayed for radioactivity by liquid scintillation counting. The remainder of the sample can be used for TLC analysis of the labeled classes and thereby give a measure of total wax produced.\nFor lipid class analysis the sample is applied to a silica TLC plate, and the plate is developed in hexane/diethyl ether/acetic acid (80:20:1 v/v/v). The distribution of radioactivity between the lipid classes, largely wax esters, free fatty acids, fatty alcohols, and polar lipids at the origin, is measured using an AMBIS radioanalytic imaging system (AMBIS Systems Inc., San Diego, Calif.). If necessary the individual lipid classes can be recovered from the TLC plate for further analysis. Reversed-phase TLC systems using C18 plates developed in methanol have also been used for the analysis.\n2. Quick Analysis: Following addition of the sodium sulfate and vortexing the sample, a known percentage of the organic phase is removed and counted via liquid scintillation counting. This calculation is used to estimate the total counts in the organic phase. Another portion of the organic phase is then removed, dryed down under nitrogen, redissolved in hexane and spotted on TLC plates and developed and scanned as described for the detailed assay. In this manner the percentage of the total counts which are incorporated into wax is determined.\nAcyl-CoA and alcohol substrates having varying carbon chain lengths and degrees of unsaturation were added to a microsomal membrane fraction having wax synthase activity to determine the range of substrates recognized by the jojoba wax synthase. Wax synthase activity was measured as described in Example 1, with acyl specificity measured using 80 μM of acyl-CoA substrate and 100 μM of radiolabeled oleyl alcohol. Alcohol specificity was measured using 100 μM of alcohol substrate and 40 μM of radiolabeled eicosenoyl-CoA."}, "[2]": {"tested_on": "NADH-dependent fatty acyl-CoA reductase", "assay": "NADH-dependent fatty acyl-CoA reductase assay, solubilized microsomal membranes", "format": "biochemical, Euglena gracilis", "settings": "in the assay at levels above the CMC (approximately 0.5% (w/v))", "procedure": "For example, an NADH-dependent fatty acyl-CoA reductase activity can be obtained from microsomal membranes isolated from Euglena gracilis. Methods which may be used to isolate microsomal membranes are described, for example in the published PCT patent application WO 92/14816 (application number PCT/US92/03164, filed Feb. 21, 1992). The reductase activity is solubilized from these membranes using the same approaches as used for jojoba reductase and wax synthase. Membranes are incubated on ice for one hour with various amounts of the detergent, CHAPS, in a buffering solution consisting of 25 mM BisTris, pH 6.9, 250 mM NaCl, 10% glycerol and 1 mM EDTA. The sample is then centrifuged at 200,000×g for one hour, and the supernatant and pellet fractions assayed for NADH-dependent reductase activity using radiolabeled palmitoyl-CoA and NADH as substrates. A convenient assay for reductase activity is described in PCT patent application WO 92/14816. Incubation of the membranes with 0.3, 0.5 or 0.7 % (w/v) CHAPS results in retention of reductase activity in the supernatant fractions, indicative of solubilization of the enzyme. If CHAPS is omitted during the incubation and centrifugation, all of the reductase activity is found in the pellet fraction. All of the samples are diluted ten-fold in this same buffer solution prior to assaying in order to dilute the CHAPS present during the incubation."}, "[3]": {"biological_target": "palmitoyl-ACP"}}, "data": [{"compound": "CCCCCCCCCCCC(=O)SCCNC(=O)CCNC(=O)[C@H](O)C(C)(C)COP(=O)(O)OP(=O)(O)OC[C@H]1O[C@@H](n2cnc3c(N)ncnc32)[C@H](O)[C@@H]1OP(=O)(O)O", "note": "[12:0]", "values": [{"measurement": "Wax synthase Activity, Acyl Group", "setting": "[1]", "result": 12, "unit": "pmol/min"}, {"measurement": "Wax synthase Activity, Alcohol Group", "setting": "[1]", "result": 100, "unit": "pmol/min"}]}, {"compound": "CCCCCCCCCCCCCC(=O)SCCNC(=O)CCNC(=O)[C@H](O)C(C)(C)COP(=O)(O)OP(=O)(O)OC[C@H]1O[C@@H](n2cnc3c(N)ncnc32)[C@H](O)[C@@H]1OP(=O)(O)O", "note": "[14:0]", "values": [{"measurement": "Wax synthase Activity, Acyl Group", "setting": "[1]", "result": 95, "unit": "pmol/min"}, {"measurement": "Wax synthase Activity, Alcohol Group", "setting": "[1]", "result": 145, "unit": "pmol/min"}]}, {"compound": "CCCCCCCCCCCCCCCC(=O)SCCNC(=O)CCNC(=O)[C@H](O)C(C)(C)COP(=O)(O)OP(=O)(O)OC[C@H]1O[C@@H](n2cnc3c(N)ncnc32)[C@H](O)[C@@H]1OP(=O)(O)O", "note": "[16:0]", "values": [{"measurement": "Wax synthase Activity, Acyl Group", "setting": "[1]", "result": 81, "unit": "pmol/min"}, {"measurement": "Wax synthase Activity, Alcohol Group", "setting": "[1]", "result": 107, "unit": "pmol/min"}]}, {"compound": "CCCCCCCCCCCCCCCCCC(=O)SCCNC(=O)CCNC(=O)[C@H](O)C(C)(C)COP(=O)(O)OP(=O)(O)OC[C@H]1O[C@@H](n2cnc3c(N)ncnc32)[C@H](O)[C@@H]1OP(=O)(O)O", "note": "[18:0]", "values": [{"measurement": "Wax synthase Activity, Acyl Group", "setting": "[1]", "result": 51, "unit": "pmol/min"}, {"measurement": "Wax synthase Activity, Alcohol Group", "setting": "[1]", "result": 56, "unit": "pmol/min"}]}, {"compound": "CCCCCCCCCCCCCCCCCCCC(=O)SCCNC(=O)CCNC(=O)[C@H](O)C(C)(C)COP(=O)(O)OP(=O)(O)OC[C@H]1O[C@@H](n2cnc3c(N)ncnc32)[C@H](O)[C@@H]1OP(=O)(O)O", "note": "[20:0]", "values": [{"measurement": "Wax synthase Activity, Acyl Group", "setting": "[1]", "result": 49, "unit": "pmol/min"}, {"measurement": "Wax synthase Activity, Alcohol Group", "setting": "[1]", "result": 21, "unit": "pmol/min"}]}, {"compound": "CCCCCCCCCCCCCCCCCCCCCC(=O)SCCNC(=O)CCNC(=O)[C@H](O)C(C)(C)COP(=O)(O)OP(=O)(O)OC[C@H]1O[C@@H](n2cnc3c(N)ncnc32)[C@H](O)[C@@H]1OP(=O)(O)O", "note": "[22:0]", "values": [{"measurement": "Wax synthase Activity, Acyl Group", "setting": "[1]", "result": 46, "unit": "pmol/min"}, {"measurement": "Wax synthase Activity, Alcohol Group", "setting": "[1]", "result": 17, "unit": "pmol/min"}]}, {"compound": "C[C@H](CCC(=O)NCCC[N+](C)(C)CCCS(=O)(=O)[O-])[C@H]1CC[C@H]2[C@@H]3[C@H](O)C[C@@H]4C[C@H](O)CC[C@]4(C)[C@H]3C[C@H](O)[C@]12C", "note": "[CHAPS, 3-[(3-cholamidopropyl)-dimethyl-ammonio]-1-propanesulfonate]", "values": [{"measurement": "effect on reductase enzyme activity", "setting": "[2]", "result": "inhibition of enzyme activity"}]}, {"compound": "NC(=O)CI", "note": "[Iodoacetamide]", "values": [{"measurement": "effect of sulphydryl agents on wax synthase activity (inhibition)", "setting": "[1]", "result": "much less effective"}]}, {"compound": "CCCCCCCCCCCCCCCC(=O)SCCNC(C)=O", "note": "[N-acetyl-S-palmitoyl cysteamine]", "values": [{"measurement": "wax synthase activity towards acyl-thioester substrates", "setting": "[1]; as acyl substrate", "result": "no activity was detectable"}]}, {"compound": "CCNC(=O)/C=C\\C(N)=O", "note": "[N-ethylmaleamide]", "values": [{"measurement": "effect of sulphydryl agents on wax synthase activity (inhibition)", "setting": "[1]", "result": "much less effective"}]}, {"compound": "CCCCCCCCCCCCCCCC(=O)SCCNC(=O)CCNC(=O)[C@H](O)C(C)(C)COP(=O)(O)OP(=O)(O)OC[C@H]1O[C@@H](n2cnc3c(N)ncnc32)[C@H](O)[C@@H]1OP(=O)(O)O", "note": "[palmitoyl-CoA]", "values": [{"measurement": "wax synthase activity towards acyl-thioester substrates", "setting": "[1]; as acyl substrate", "result": "greatest activity"}]}, {"compound": "O=C(O)c1cc[c]([Hg][OH])cc1", "note": "[para-hydroxymercuribenzoate]", "values": [{"measurement": "effect of sulphydryl agents on wax synthase activity (inhibition)", "setting": "[1]", "result": "Inhibition"}, {"measurement": "reversal of inhibition of wax synthase activity", "setting": "[1]; subsequent addition of DTT", "result": "could be reversed"}]}, {"compound": "jojoba wax synthase (microsomal membrane fraction having wax synthase activity) (pool or library)", "values": [{"measurement": "wax synthase activity (% of that with acyl-CoA)", "setting": "[3]", "result": 10}]}, {"compound": "palmitoyl-ACP", "values": [{"measurement": "wax synthase activity relative to acyl-CoA", "setting": "[1]; as acyl substrate", "result": "~10 % of that with acyl-CoA"}]}]}
